Test system: LG0567-F671-PDC multi-cell spheroid viability
Test: Anticancer human tumor LG0567-F671-PDC patient-derived lung adenocarcinoma cell line growth inhibition [IpAb]
Conditions: for IC50: curve of first compound; for viability, T/C: stronger effect = lower value
Text: Combinatorial screen of targeted agents with ipatasertib and abemaciclib in multi-cell type tumor spheroids
A high-throughput screen of multi-cell type tumor spheroids was designed to identify active combinations of targeted small molecules and ipatasertib or abemaciclib. Complex spheroids include a stromal component modeled by human endothelial cells (HUVEC) and fibroblasts modeled by human mesenchymal stem cells (MSCs). The concentration ranges selected for each drug and investigational agent were based upon clinically achievable concentrations if the clinical Cmax of the agent was known.
Compounds. The drugs and investigational agents: ipatasertib (NSC767898), abemaciclib(NSC768073), selumetinib (NSC741078), trametinib (758246), adavosertib (NSC754352), everolimus (NSC733504), sapanisertib (NSC764658), vemurafenib (NSC761431), venetoclax (NSC766270), copanlisib (NSC809693), apelisib (NSC765974), palbociblib (NSC758247), vemurafenib (NSC761431), dabrafenib (NSC764134), ravoxertinib (NSC781343), BMS-387032 (NSC767048), sotorasib (NSC818433), talazoparib (NSC767125) and afursertib (NSC778305), were obtained from the National Cancer Institute (NCI) Developmental Therapeutics Program Chemical Repository. The FDA-approved anticancer drug set is available from the NCI Developmental Therapeutics Program. […] The stock solutions were prepared in dimethyl sulfoxide (DMSO, Sigma-Aldrich, St. Louis, MO, cat. D2650) at 800-fold the tested concentration and stored at -70 degrees C prior to their use. All drugs and investigational agents were tested over a range starting from a high concentration at or near the clinical Cmax and decreasing in half-log increments. If the clinical Cmax for an agent had not been determined, the highest concentration tested was 10 microM.
NCI60 Cell Culture. NCI60 cell lines were obtained from the NCI Developmental Therapeutics Program Tumor Repository. For each lot of cells, the Repository performed Applied Biosystems AmpFLSTR Identifiler testing with PCR amplification to confirm consistency with the published Identifier STR profile for each cell line. Cells were kept in continuous culture for no more than 20 passages. The optimal seeding densities for each of the cell lines at each time point assessed were determined prior to performing the concentration response studies. Briefly, the NCI60 human tumor lines were grown as monolayers in RPMI 1640 medium supplemented with 10% FBS and 2 mmol/L L-glutamine.
An additional 9 lines were from the NCI60 cell line panel including MDA-MB-231 breast carcinoma, MDA-MB-468 breast carcinoma, MCF7 breast carcinoma, Hs578T breast carcinoma, MALME-3M melanoma, SK-MEL-2 melanoma, SK-OV-3 ovarian carcinoma, DU-145 prostate carcinoma, PC-3 prostate carcinoma, all cell lines along with major genetic alterations are listed on Table 2. Pooled donor human umbilical vein endothelial cells (HUVEC, Lonza, cat. CC-2519) and human mesenchymal stem cells (hMSC, Lonza, cat. PT-2501) were purchased from Lonza (Walkersville, MD).
PDMR cell lines were grown in complete medium (DC medium): Dulbecco's modified Eagle's medium (DMEM)/F12 supplemented with 5% fetal bovine serum (FBS), 2 mM L-glutamine, 100 U/mL penicillin and 100 µg/ml streptomycin, 0.4 µg/ml hydrocortisone, 10 ng/ml epidermal growth factor (EGF) recombinant human protein, 24 µg/mL adenine, and 0.1 mg/mL primocin. During culture from frozen stock vials, PDMR cells were cultured in the same medium containing 10 µM Y-27632 (see Table 3). The PDCs were cultured in complete DMEM/F12 media without 10 microM Y-27632 dihydrochloride for at least two passages prior to the screen. The pooled donor HUVEC and hMSC were cultured in endothelial cell growth medium 2 (PromoCell, Heidelberg, Germany, cat. C-22011) and mesenchymal stem cell growth medium 2 (PromoCell, cat. C-28009), respectively. For all experiments, HUVEC and hMSC were used at passages </=5.
[…]
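Note: viability read after 7 days of drug exposure.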
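Throughout, for viability, T/C: 100% = DMSO vehicle control luminescence.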

What does the source list for Cn1ncnc1[C@H]1c2n[nH]c(=O)c3cc(F)cc(c23)N[C@@H]1c1ccc(F)cc1 + CC(C)NCC(C(=O)N1CCN(c2ncnc3c2C(C)CC3O)CC1)c1ccc(Cl)cc1?
IC50 (second compound 0.1 µM): 21.9 nM; IC50 (second compound 0.316 µM): 9.77 nM; IC50 (second compound 1 µM): 18.1 nM; IC50 (second compound 3.16 µM): 38.1 nM; IC50 (second compound 10 µM): 20.5 nM; viability, T/C (second compound 0.1 µM, first compound 0.000316 µM): 104%; viability, T/C (second compound 0.1 µM, first compound 0.001 µM): 97.9%; viability, T/C (second compound 0.1 µM, first compound 0.00316 µM): 68.9%; viability, T/C (second compound 0.1 µM, first compound 0.01 µM): 64.9%; viability, T/C (second compound 0.1 µM, first compound 0.0316 µM): 42%; viability, T/C (second compound 0.1 µM, first compound 0.1 µM): 41.1%; viability, T/C (second compound 0.316 µM, first compound 0.000316 µM): 69.1%; viability, T/C (second compound 0.316 µM, first compound 0.001 µM): 70.5%; viability, T/C (second compound 0.316 µM, first compound 0.00316 µM): 64.1%; viability, T/C (second compound 0.316 µM, first compound 0.01 µM): 44.9%; viability, T/C (second compound 0.316 µM, first compound 0.0316 µM): 56.4%; viability, T/C (second compound 0.316 µM, first compound 0.1 µM): 47.8%; viability, T/C (second compound 1 µM, first compound 0.000316 µM): 73.6%; viability, T/C (second compound 1 µM, first compound 0.001 µM): 74.5%; viability, T/C (second compound 1 µM, first compound 0.00316 µM): 75%; viability, T/C (second compound 1 µM, first compound 0.01 µM): 68.5%; viability, T/C (second compound 1 µM, first compound 0.0316 µM): 27.8%; viability, T/C (second compound 1 µM, first compound 0.1 µM): 37.7%; viability, T/C (second compound 3.16 µM, first compound 0.000316 µM): 79.3%; viability, T/C (second compound 3.16 µM, first compound 0.001 µM): 71.3%; viability, T/C (second compound 3.16 µM, first compound 0.00316 µM): 77.5%; viability, T/C (second compound 3.16 µM, first compound 0.01 µM): 59.2%; viability, T/C (second compound 3.16 µM, first compound 0.0316 µM): 53.6%; viability, T/C (second compound 3.16 µM, first compound 0.1 µM): 37.6%; viability, T/C (second compound 10 µM, first compound 0.000316 µM): 63.9%; viability, T/C (second compound 10 µM, first compound 0.001 µM): 70.5%; viability, T/C (second compound 10 µM, first compound 0.00316 µM): 70.6%; viability, T/C (second compound 10 µM, first compound 0.01 µM): 50.8%; viability, T/C (second compound 10 µM, first compound 0.0316 µM): 49.6%; viability, T/C (second compound 10 µM, first compound 0.1 µM): 35.3%

For CC(=O)c1c(C)c2cnc(Nc3ccc(N4CCNCC4)cn3)nc2n(C2CCCC2)c1=O + CC(C)NCC(C(=O)N1CCN(c2ncnc3c2C(C)CC3O)CC1)c1ccc(Cl)cc1, which IC50 (second compound 0.1 µM) is on record?
Its IC50 is > 300 nM.

And the IC50 (second compound 0.316 µM)?
Its IC50 is > 300 nM.

What about the IC50 (second compound 1 µM) of the same compound?
The IC50 was > 300 nM.

And the IC50 (second compound 3.16 µM)?
The IC50 was > 300 nM.

What about the IC50 (second compound 10 µM) of the same compound?
The IC50 was > 300 nM.

What about the viability, T/C (second compound 0.1 µM, first compound 0.000949 µM) of the same compound?
The viability, T/C was 89.3%.

And the viability, T/C (second compound 0.1 µM, first compound 0.003 µM)?
The viability, T/C was 84.7%.

What about the viability, T/C (second compound 0.1 µM, first compound 0.00949 µM) of the same compound?
Its viability, T/C is 68.9%.

And the viability, T/C (second compound 0.1 µM, first compound 0.03 µM)?
Its viability, T/C is 69.5%.

And the viability, T/C (second compound 0.1 µM, first compound 0.0949 µM)?
The viability, T/C was 67.7%.

And the viability, T/C (second compound 0.1 µM, first compound 0.3 µM)?
Its viability, T/C is 75.6%.

What about the viability, T/C (second compound 0.316 µM, first compound 0.000949 µM) of the same compound?
Its viability, T/C is 66.5%.

What about the viability, T/C (second compound 0.316 µM, first compound 0.003 µM) of the same compound?
Its viability, T/C is 71.5%.

And the viability, T/C (second compound 0.316 µM, first compound 0.00949 µM)?
The viability, T/C was 69.7%.

And the viability, T/C (second compound 0.316 µM, first compound 0.03 µM)?
The viability, T/C was 61.3%.

What about the viability, T/C (second compound 0.316 µM, first compound 0.0949 µM) of the same compound?
The viability, T/C was 58.1%.

What about the viability, T/C (second compound 0.316 µM, first compound 0.3 µM) of the same compound?
Its viability, T/C is 62.5%.

What about the viability, T/C (second compound 1 µM, first compound 0.000949 µM) of the same compound?
Its viability, T/C is 76.3%.

And the viability, T/C (second compound 1 µM, first compound 0.003 µM)?
The viability, T/C was 73.6%.

What about the viability, T/C (second compound 1 µM, first compound 0.00949 µM) of the same compound?
The viability, T/C was 78.9%.

And the viability, T/C (second compound 1 µM, first compound 0.03 µM)?
Its viability, T/C is 66%.

What about the viability, T/C (second compound 1 µM, first compound 0.0949 µM) of the same compound?
The viability, T/C was 63.1%.

What about the viability, T/C (second compound 1 µM, first compound 0.3 µM) of the same compound?
Its viability, T/C is 75.2%.

And the viability, T/C (second compound 3.16 µM, first compound 0.000949 µM)?
Its viability, T/C is 61.2%.

And the viability, T/C (second compound 3.16 µM, first compound 0.003 µM)?
Its viability, T/C is 80.1%.

What about the viability, T/C (second compound 3.16 µM, first compound 0.00949 µM) of the same compound?
The viability, T/C was 74.2%.

And the viability, T/C (second compound 3.16 µM, first compound 0.03 µM)?
Its viability, T/C is 69.1%.

What about the viability, T/C (second compound 3.16 µM, first compound 0.0949 µM) of the same compound?
The viability, T/C was 68.4%.

And the viability, T/C (second compound 3.16 µM, first compound 0.3 µM)?
Its viability, T/C is 69.2%.

What about the viability, T/C (second compound 10 µM, first compound 0.000949 µM) of the same compound?
The viability, T/C was 71.7%.

What about the viability, T/C (second compound 10 µM, first compound 0.003 µM) of the same compound?
The viability, T/C was 84.8%.

And the viability, T/C (second compound 10 µM, first compound 0.00949 µM)?
Its viability, T/C is 79.3%.

What about the viability, T/C (second compound 10 µM, first compound 0.03 µM) of the same compound?
The viability, T/C was 59.6%.

And the viability, T/C (second compound 10 µM, first compound 0.0949 µM)?
Its viability, T/C is 60.3%.

And the viability, T/C (second compound 10 µM, first compound 0.3 µM)?
The viability, T/C was 58.4%.
